Earlier results in US20050221347A1, “Inhibitors of binding between proteins and macromolecular ligands” (Thrasos, Inc., priority 1999, published 2005).

Molecular target: alpha subunit of the interleukin-2 receptor (Homo sapiens, UniProt P60568)
Sequence (P60568 21-153): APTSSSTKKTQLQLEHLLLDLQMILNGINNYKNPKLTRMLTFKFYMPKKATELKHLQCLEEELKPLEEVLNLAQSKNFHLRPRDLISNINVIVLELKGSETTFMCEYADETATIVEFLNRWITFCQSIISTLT

In the case of `COC(=O)[C@H](Cc1ccc(C#Cc2ccccc2)cc1)NC(=O)C[C@H]1CCCN(C(=N)N)C1` [Structural Formula (I)], the Kd (binding to the alpha subunit of the interleukin-2 receptor, described in Tilley et al., J. Am. Chem. Soc 119:7589 (1997)) is given as roughly 3 µM and the “inhibition of binding of interleukin 2 to the interleukin-2 receptor” value (result in words, Tilley et al. 1997) is given as “inhibits the binding of interleukin 2”.
